Read-outs that look alike come from different tables or passages of the source.
What was measured:
[1] = Pharmacokinetic study of C2 in Wistar rats (plasma, HPLC, non-compartmental analysis); type: in vivo; details: for k el: read-out: Ke (converted); for bioavailability: i.g. 100 mg/kg vs i.v. 50 mg/kg, read-out: F% orally (absolute oral bioavailability)
From the text: Prior to the studies (on the day of C2 administration), the Wistar rats (n = 6) were cannulated. For intravenous (i.v.) treatment, a 24 G catheter was placed in the right lateral tail vein (for blood collection), and another catheter was placed in the left (for C2 administration) lateral tail vein of the rat as follows: the animal was placed inside a trap (special acrylic stocks for rats), the rat tail was exposed, and the distal region of the tail was disinfected with 70% ethanol; the tail veins were then dilated using a heating pad (approximately 45°C). An assistant held the tail of the rat while the left lateral vein was located, and a 24 G catheter was then firmly inserted into the posterior third of the caudal vein of the animal, where it was fixed with adhesive tape (for intragastric and intraperitoneal studies, only one catheter was placed on the right for blood collection).
For the intravenous study, a single dose of 50 mg/kg C2 was administered through the 24 G catheter when the rat was inside the trap. For the intragastric (i.g) pharmacokinetic study, a second group of rats (n = 6) received a single dose of 100 mg/kg using a 20 G gavage needle (animals were provided with a standard diet 4 h after dosing). For the intraperitoneal (i.p.) treatment, a third group of rats (n = 6) was injected with 75 mg/kg C2. In all pharmacokinetic studies, approximately 250 μL of blood was collected in heparinized tubes from each rat via the catheter in the right lateral tail vein prior to dosing and 5, 10, 20, 30, 45, 60, 90, 120, 180, 240, 300, 360, 540, 720 and 1440 min after dosing. These blood samples were supplemented with an equal volume of 0.9% sodium chloride solution. Plasma (100 μL) was harvested by centrifuging the blood samples at 8,000 rpm for 15 min, and the plasma was then immediately processed for analysis.
The samples were prepared as follows: briefly, 450 μL of acetonitrile was added to 100 μL of rat plasma, and the mixture was vortexed for 5 min. Subsequently, 450 μL of methanol was added to the sample, which was then vortexed again and centrifuged to precipitate proteins. Subsequently, 10 μL of the supernatant was introduced into the HPLC system. The plasma concentrations of C2 were determined using an RP-HPLC with UV detection method that had previously been validated for pharmacokinetic studies and the complementary assays performed in this work.
The plasma concentration–time data obtained after the i.v., i.g., and i.p. administration of C2 were subjected to a non-compartmental analysis using statistical moment theory. The pharmacokinetic parameters of C2 were calculated using the Kinetica 5.0 software (Adept Scientific Ltd), including the maximum plasma concentration (Cmax), time to reach Cmax (Tmax), elimination half-life (t1/2), area under the plasma concentration-time curve from time zero to the last measurable concentration (AUC0-t), area under the plasma concentration-time curve from time zero to infinity (AUCtot), mean residence time (MRT), clearance (CL), and apparent volume of distribution (Vd).

[2] = Plasma protein binding assay (ultrafiltration); type: in vitro ADME; details: Wistar, rat; for fraction unbound at 4 h, 1 μg/mL / fraction unbound at 4 h, 5 μg/mL / fraction unbound at 4 h, 10 μg/mL / fraction unbound at 4 h, 20 μg/mL: ultrafiltration, 37°C
Method: The resulting samples were incubated for 4 h at 37°C. After incubation, a 100 μL aliquot was removed to analyze the total concentration, and the remaining 500 μL was transferred to a 10 kD cut-off ultrafiltration device (Millipore Corporation, USA), which was centrifuged at 2,000 g for 2 h at 37°C. A 100 μL aliquot of centrifuged plasma was analyzed for the free drug concentration using the RP-HPLC method. The amount of the test compound in the ultrafiltrate was determined by interpolating the main areas of the samples on standard curves containing known amounts of C2. The percentage of protein binding was calculated using the following formula: Protein binding ratio (%) = […].

Wistar rats = system: Wistar rats; parameters: method as in ref 37 = [37]; 37 OECD Guidelines for the Testing of Chemicals 425: Acute Oral Toxicity—Up-and-Down-Procedure (UDP). 2008.; details: acute toxicity; cited from earlier work
[3] = pharmacokinetic model (Kinetica 5.0), bi-exponential decline of plasma concentration
[4] = pharmacokinetic model (Kinetica 5.0), calculated
[5] = rat, plasma, ip, single dose (100 mg/kg in abstract, 75 mg/kg in methods), Wistar rats
[6] = rat, plasma, iv, single dose 50 mg/kg, Wistar rats
[7] = rat, plasma, i.g. (oral), single dose 100 mg/kg, Wistar rats
[8] = read-out: % Bound fraction of C2 in rat plasma ± SD (converted)
[9] = read-out: % Unbound fraction of C2 in rat plasma ± SD

SMILES: O=C(O)CCCC(=O)Nc1ccc(O)c(C(=O)O)c1 [C2, 5-[(4-carboxybutanoyl)amino]-2-hydroxybenzoic acid]
- detection in the plasma ([1]; 6 h after administration): no longer detected
- half-life ([1]; Wistar, rat, plasma, ip, 75 mg/kg, i.p., single dose (100 mg/kg in abstract, 75 mg/kg in methods), Wistar rats, read-out: t1/2 e): 38 ± 3 min
- half-life ([1]; Wistar, rat, plasma, iv, 50 mg/kg, i.v., single dose 50 mg/kg, Wistar rats, read-out: t1/2 e (elimination half-life)): ~33 min
- Tmax ([1]; Wistar, rat, plasma, iv, 50 mg/kg, single dose 50 mg/kg, Wistar rats): 5 min
- half-life ([1]; Wistar, rat, plasma, pharmacokinetic model (Kinetica 5.0), read-out: elimination half-life α (t1/2α)): 18 min
- half-life ([1]; Wistar, rat, plasma, pharmacokinetic model (Kinetica 5.0), read-out: elimination half-life β (t1/2β)): 62 min
- half-life ([1]; Wistar, rat, plasma, po, 100 mg/kg, i.g. (oral), single dose 100 mg/kg, Wistar rats, read-out: t1/2 e): ~27 min
- Cmax ([1]; i.g. (oral), single dose 100 mg/kg, Wistar rats, plasma): 2500 ± 300 ng/mL
- Ka ([1]; i.p., single dose (100 mg/kg in abstract, 75 mg/kg in methods), Wistar rats): 1.2 ± 0.2 h⁻¹
- Cp^0 ([1]; i.v., single dose 50 mg/kg, Wistar rats): 26900 ± 3700 ng/mL
- α [1, 3]: 0.037 min⁻¹
- β [1, 3]: 0.011 min⁻¹
- K12 [1, 4]: 0.008 min⁻¹
- K21 [1, 4]: 0.022 min⁻¹
- AUC [1, 5]: 12500 ng·h/mL
- MRT [1, 5]: 69 min
- Cmax ([1]; rat, plasma, ip, single dose (100 mg/kg in abstract, 75 mg/kg in methods), Wistar rats, read-out: Cmax): 8700 ± 400 ng/mL
- k el [1, 5]: 0.00025 s⁻¹
- AUC [1, 6]: 20800 ng·h/mL
- MRT [1, 6]: 57 min
- Vd [1, 6]: 2 ± 0.2 L/kg
- clearance [1, 6]: 13 ± 3 mL/min
- k el [1, 6]: 0.000361 s⁻¹
- bioavailability ([1]; rat, plasma, oral, Wistar rats): ~13%
- bioavailability ([1]; rat, plasma, po, Wistar rats): 13%
- Cmax ([1]; rat, plasma, po, intragastric administration, 100 mg/kg, Wistar rats (abstract), read-out: Cmax): 2500 ng/mL
- AUC [1, 7]: 2620 ng·h/mL
- MRT [1, 7]: 49 min
- k el [1, 7]: 0.0005 s⁻¹
- fraction unbound at 4 h, 1 μg/mL [2, 8]: 0.921
- fraction unbound at 4 h, 1 μg/mL [2, 9]: 0.921 ± 0.023
- fraction unbound at 4 h, 5 μg/mL [2, 8]: 0.925
- fraction unbound at 4 h, 5 μg/mL [2, 9]: 0.925 ± 0.018
- fraction unbound at 4 h, 10 μg/mL [2, 8]: 0.919
- fraction unbound at 4 h, 10 μg/mL [2, 9]: 0.919 ± 0.007
- fraction unbound at 4 h, 20 μg/mL [2, 8]: 0.898
- fraction unbound at 4 h, 20 μg/mL [2, 9]: 0.898 ± 0.008
- fraction unbound at 4 h ([2]; concentrations of 1 to 20 μg/mL, read-out: unbound fraction): 0.898 to 0.925
- fraction unbound at 4 h ([2]; summary in discussion, read-out: protein binding (converted)): 0.9
- LD50 (Wistar rats): > 2000 mg/kg

Source: publication PMC4959752, “Pharmacokinetics in Wistar Rats of 5-[(4-Carboxybutanoyl)Amino]-2-Hydroxybenzoic Acid: A Novel Synthetic Derivative of 5-Aminosalicylic Acid (5-ASA) with Possible Anti-Inflammatory Activity” (PLoS ONE, 2016)
